How the values were obtained:
[1] = biological target: human histamine H1 receptor (Homo sapiens, UniProt P35367); test: Histamine H1 receptor binding; conditions: Table 10
Excerpt: (§1) Other receptors: Cell membranes expressing human dopamine D1, D2, D4 and rat D3 receptors were purchased through BioSignal, Inc. (Montreal, Canada). Binding assays using the histamine H, receptor; dopamine receptors; and α1A, α1B, and α2 adrenergic receptors may be carried out according to the procedures described in U.S. Pat. No. 5,780,485, the disclosure of which is hereby incorporated by reference in its entirety into this application. Binding assays using the dopamine D5 receptor may be carried out according to the procedures described in U.S. Pat. No. 5,882,855, the disclosure of which is hereby incorporated by reference in its entirety into this application. Binding assays for the human α1D adrenergic receptor may be carried out according to the procedures described in U.S. Pat. No. 6,156,518, the disclosure of which is hereby incorporated by reference in its entirety into this application.

[2] = biological target: human dopamine D5 receptor (Homo sapiens, UniProt P21918); test: Dopamine D5 receptor binding; conditions: Table 10
human dopamine D5 receptor, sequence (P21918 whole entry): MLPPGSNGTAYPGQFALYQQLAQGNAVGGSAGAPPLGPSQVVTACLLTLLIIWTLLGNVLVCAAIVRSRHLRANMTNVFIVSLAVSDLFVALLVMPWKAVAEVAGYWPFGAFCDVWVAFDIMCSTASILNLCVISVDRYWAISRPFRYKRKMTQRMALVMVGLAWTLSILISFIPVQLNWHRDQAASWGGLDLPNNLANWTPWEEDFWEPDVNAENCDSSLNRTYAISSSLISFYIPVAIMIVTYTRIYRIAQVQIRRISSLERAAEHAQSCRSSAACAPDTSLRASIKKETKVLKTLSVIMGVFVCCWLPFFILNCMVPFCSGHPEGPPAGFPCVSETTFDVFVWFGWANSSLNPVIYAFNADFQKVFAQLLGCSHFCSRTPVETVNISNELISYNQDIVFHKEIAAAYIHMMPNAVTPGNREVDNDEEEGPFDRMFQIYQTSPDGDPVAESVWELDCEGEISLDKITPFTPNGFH
Excerpt: as §1

Human 5HT1D receptor = biological target: T1, Human 5HT1D receptor (Homo sapiens, UniProt P28221); test: 5HT1D receptor binding ([3H]-serotonin); conditions: Table 8
T1 construct: expressed in transfected cells
T1 sequence (P28221 whole entry): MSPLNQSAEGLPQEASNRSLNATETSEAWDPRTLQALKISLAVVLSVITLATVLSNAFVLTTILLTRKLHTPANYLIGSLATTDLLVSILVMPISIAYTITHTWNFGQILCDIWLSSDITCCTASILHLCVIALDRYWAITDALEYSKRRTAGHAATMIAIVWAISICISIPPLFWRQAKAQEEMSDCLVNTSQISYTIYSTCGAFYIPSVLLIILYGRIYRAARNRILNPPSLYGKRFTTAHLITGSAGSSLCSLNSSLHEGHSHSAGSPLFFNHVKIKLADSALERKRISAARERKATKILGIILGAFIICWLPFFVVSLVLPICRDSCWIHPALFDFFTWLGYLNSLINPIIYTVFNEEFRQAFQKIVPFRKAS
Method: (§2) Human 5HT1B, 5HT1D, 5HT1E, 5HT1F, and 5HT7 Receptors: The cell lysates of LM(tk−) clonal cell line stably transfected with the genes encoding each of these 5HT receptor-subtypes were prepared as described above. Cell membranes were suspended in 50 mM Tris-HCl buffer (pH 7.4 at 37° C.) containing 10 mM MgCl2, 0.2 mM EDTA, 10 µM pargyline, and 0.1% ascorbate. […] Nonspecific binding was determined in the presence of 10 μM serotonin. The bound radioligand was separated by filtration through GF/B filters using a cell harvester.

Human 5HT1E receptor = biological target: T2, Human 5HT1E receptor (Homo sapiens, UniProt P28566); test: 5HT1E receptor binding ([3H]-serotonin); conditions: Table 8
T2 construct: expressed in transfected cells
T2 sequence (P28566 whole entry): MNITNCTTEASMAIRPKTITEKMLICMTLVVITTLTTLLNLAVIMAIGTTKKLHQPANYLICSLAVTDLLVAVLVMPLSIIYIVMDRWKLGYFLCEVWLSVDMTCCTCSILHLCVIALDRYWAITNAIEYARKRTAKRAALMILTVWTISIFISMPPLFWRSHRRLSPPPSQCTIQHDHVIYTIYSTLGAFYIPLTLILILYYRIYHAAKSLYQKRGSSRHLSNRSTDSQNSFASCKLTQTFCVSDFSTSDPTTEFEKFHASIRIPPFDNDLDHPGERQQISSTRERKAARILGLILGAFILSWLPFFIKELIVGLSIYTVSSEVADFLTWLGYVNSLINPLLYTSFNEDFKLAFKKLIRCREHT
Method: as §2

human α2B adrenoceptor = biological target: T3, human α2B adrenoceptor (Homo sapiens, UniProt P18089); test: α2B adrenergic receptor binding; conditions: Table 10
T3 construct: expressed in transfected cells
T3 sequence (P18089 whole entry): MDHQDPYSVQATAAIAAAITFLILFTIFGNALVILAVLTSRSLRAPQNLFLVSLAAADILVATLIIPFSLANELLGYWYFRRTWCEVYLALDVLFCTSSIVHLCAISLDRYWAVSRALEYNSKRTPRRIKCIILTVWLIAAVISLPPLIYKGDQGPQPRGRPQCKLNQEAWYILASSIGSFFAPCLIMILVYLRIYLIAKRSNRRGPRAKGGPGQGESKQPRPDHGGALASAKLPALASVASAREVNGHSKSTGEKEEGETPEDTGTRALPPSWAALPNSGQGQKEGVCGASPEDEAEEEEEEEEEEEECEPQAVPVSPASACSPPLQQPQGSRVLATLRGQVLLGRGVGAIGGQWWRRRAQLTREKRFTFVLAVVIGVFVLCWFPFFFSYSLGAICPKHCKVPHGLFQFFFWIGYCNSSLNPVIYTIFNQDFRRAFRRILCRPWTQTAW
Excerpt: as §1

[3] = biological target: T4, 5HT transporter (r5HT Uptk) (Rattus norvegicus, UniProt P31652); test: Binding at native 5HT transporter; conditions: Table 8
T4 construct: native, tissue-derived transporters; from tissue
T4 sequence (P31652 whole entry): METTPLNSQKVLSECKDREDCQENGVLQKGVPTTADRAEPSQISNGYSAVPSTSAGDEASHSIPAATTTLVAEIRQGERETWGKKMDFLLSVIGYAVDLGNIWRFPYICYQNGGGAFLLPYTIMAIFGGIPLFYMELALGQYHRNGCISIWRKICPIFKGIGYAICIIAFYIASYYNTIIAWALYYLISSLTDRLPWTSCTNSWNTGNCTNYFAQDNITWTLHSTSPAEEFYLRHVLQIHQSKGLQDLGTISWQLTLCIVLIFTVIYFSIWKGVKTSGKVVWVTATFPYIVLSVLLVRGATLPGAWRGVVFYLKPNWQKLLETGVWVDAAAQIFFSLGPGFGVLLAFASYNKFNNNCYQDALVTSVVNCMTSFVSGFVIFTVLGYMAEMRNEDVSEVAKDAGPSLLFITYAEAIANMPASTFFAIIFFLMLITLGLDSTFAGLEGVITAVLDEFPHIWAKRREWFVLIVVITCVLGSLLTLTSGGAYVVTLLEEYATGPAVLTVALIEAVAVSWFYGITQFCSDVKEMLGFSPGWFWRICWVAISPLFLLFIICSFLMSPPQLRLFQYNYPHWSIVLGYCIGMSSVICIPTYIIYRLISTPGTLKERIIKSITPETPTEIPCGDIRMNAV
Method: The binding properties of the compounds of the present invention were evaluated at one or more cloned receptors or native, tissue-derived transporters, using protocols described below.
The methods to determine binding affinity at native transporters are described in the following publications: 5HT transporter and NE transporter (Owens et al., 1997), and DA transporter (Javitch et al, 1984).

human α2C adrenoceptor = biological target: T5, human α2C adrenoceptor (Homo sapiens, UniProt P18825); test: α2C adrenergic receptor binding; conditions: Table 10
T5 construct: expressed in transfected cells
T5 sequence (P18825 whole entry): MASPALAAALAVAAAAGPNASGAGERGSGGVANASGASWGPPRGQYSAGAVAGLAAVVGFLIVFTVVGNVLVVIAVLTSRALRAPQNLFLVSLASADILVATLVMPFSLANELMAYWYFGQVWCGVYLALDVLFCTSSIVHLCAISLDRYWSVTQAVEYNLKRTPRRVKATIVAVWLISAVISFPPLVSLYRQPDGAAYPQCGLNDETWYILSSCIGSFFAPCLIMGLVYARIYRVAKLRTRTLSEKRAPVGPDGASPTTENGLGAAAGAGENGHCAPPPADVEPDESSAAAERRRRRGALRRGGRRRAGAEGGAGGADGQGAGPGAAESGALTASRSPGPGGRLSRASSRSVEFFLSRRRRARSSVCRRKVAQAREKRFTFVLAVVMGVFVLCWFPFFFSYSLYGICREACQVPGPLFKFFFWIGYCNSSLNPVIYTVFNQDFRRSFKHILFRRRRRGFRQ
Excerpt: as §1

h5HT6 = biological target: T6, h5HT6 (Homo sapiens, UniProt P50406); test: 5-HT6 receptor binding; conditions: Table 8
T6 construct: expressed in transfected cells
T6 sequence (P50406 whole entry): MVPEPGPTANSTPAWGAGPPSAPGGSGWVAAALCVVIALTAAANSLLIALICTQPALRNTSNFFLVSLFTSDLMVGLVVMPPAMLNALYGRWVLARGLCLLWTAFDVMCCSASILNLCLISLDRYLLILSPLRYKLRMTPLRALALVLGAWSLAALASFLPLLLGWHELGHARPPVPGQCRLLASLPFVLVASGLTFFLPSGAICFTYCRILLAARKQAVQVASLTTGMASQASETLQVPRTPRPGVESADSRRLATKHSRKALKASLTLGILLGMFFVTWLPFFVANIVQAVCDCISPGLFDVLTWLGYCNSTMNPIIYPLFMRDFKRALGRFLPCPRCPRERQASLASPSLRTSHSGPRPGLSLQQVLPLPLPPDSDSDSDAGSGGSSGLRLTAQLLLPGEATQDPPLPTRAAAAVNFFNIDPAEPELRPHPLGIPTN
Method: Other 5-HT Receptors: Other serotonin receptor binding assays were performed according to published methods: rat 5HT2C receptor (Julius et al., 1988); and 5-HT6 (Monsma, et al., 1993). The binding assays using the 5-HT4 receptor were performed according to the procedures described in U.S. Pat. No. 5,766,879, the disclosure of which is hereby incorporated by reference in its entirety into this application.

[4] = system: neuropathic rats (chronic constriction nerve injury); test: Chronic constriction nerve injury model of neuropathic pain: thermal hyperalgesia (Thermal Plantar Test); type: in vivo, rat
Method: The aim of this study was to assess the potential analgesic effects of Example 92 following intraperitoneal administration at the doses of 3, 10 and 30 mg/kg, respectively, in an animal model of neuropathic pain. A peripheral mononeuropathy was induced in the right hind limb of rats following a chronic constriction nerve injury (Bennett and Xie, 1988), and the development of mechanical allodynia and thermal hyperalgesia was monitored using established behavioral tests (Attal, N., et al., 1990; Hargreaves, K., et al., 1988).
Male Sprague-Dawley rats within the weight range of 200-225 g, and approximate age 7-9 weeks, were allowed to acclimate for a minimum of 6 days prior to the start of the behavioral testing.
All rats underwent a chronic constriction nerve injury, and of these, those that successfully developed allodynia and hyperalgesia were allocated to treatment groups.
There were 5 separate treatment groups (with a minimum of 10 rats per group). The treatment groups were as follows: • Group C received Morphine at 10 mg/kg (n=10) • Group D received Vehicle for Example 92* at 1 ml/kg (n=10) (* 100% DMSO) • Group E received Example 92 at 30 mg/kg (n=10) • Group F received Example 92 at 3 mg/kg (n=10) • Group G received Example 92 at 10 mg/kg (n=10)
The dose volume for all treatments was 1 ml/kg. Each rat received a single i.p. dose of the test substance, reference substance or vehicle on Day 12 PO. Test substance and vehicle dosing solutions were encoded (C-G) so that the observers were unaware of the identity of the treatment groups.
The behavioral tests (Von Frey filament and Thermal Plantar Tests—see below) were performed on all rats on 3 separate days prior to […], to establish baseline values. The pre-surgery baseline values were calculated as the mean of the last 2 days testing (the data from the first day of testing were not included as this was classed as part of the acclimating period). The sequence of tests was always mechanical allodynia (Von Frey Test) followed by thermal hyperalgesia (Thermal Plantar Test), with a minimum 5 min period allowed between the 2 tests.
Each rat was placed in a clear plastic chamber with a glass floor and allowed a short period to acclimatize to the new environment (approximately 5 min.). The animals were then challenged with a radiant Infrared (IR) heat source, directed at the plantar surface of the hind paw from below, and the withdrawal latency of both the ipsilateral and contralateral hind paws was evaluated. The infrared intensity was set at IR50 and the maximum length of exposure to the IR source was 18 s. Non-responding animals were allocated a withdrawal latency of 18 s.
The animals were surgically prepared over 5 days. […]

[5] = biological target: T7, human dopamine D1 receptor (Homo sapiens, UniProt P21728); test: Dopamine D1 receptor binding; conditions: Table 10
T7 construct: purchased BioSignal, Inc. (Montreal, Canada)
T7 sequence (P21728 whole entry): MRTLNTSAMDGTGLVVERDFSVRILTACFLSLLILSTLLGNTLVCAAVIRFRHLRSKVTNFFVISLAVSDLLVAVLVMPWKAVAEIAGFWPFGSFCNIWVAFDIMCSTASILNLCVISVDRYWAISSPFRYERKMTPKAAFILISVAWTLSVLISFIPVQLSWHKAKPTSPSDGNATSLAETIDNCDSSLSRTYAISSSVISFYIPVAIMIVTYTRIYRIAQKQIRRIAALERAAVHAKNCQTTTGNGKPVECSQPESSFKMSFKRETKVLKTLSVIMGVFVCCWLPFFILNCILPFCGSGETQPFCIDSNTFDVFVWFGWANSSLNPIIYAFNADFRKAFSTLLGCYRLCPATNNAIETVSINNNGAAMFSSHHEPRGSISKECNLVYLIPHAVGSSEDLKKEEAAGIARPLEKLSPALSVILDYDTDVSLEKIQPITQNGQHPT
Excerpt: as §1

human histamine H1 receptor, sequence (P35367 whole entry): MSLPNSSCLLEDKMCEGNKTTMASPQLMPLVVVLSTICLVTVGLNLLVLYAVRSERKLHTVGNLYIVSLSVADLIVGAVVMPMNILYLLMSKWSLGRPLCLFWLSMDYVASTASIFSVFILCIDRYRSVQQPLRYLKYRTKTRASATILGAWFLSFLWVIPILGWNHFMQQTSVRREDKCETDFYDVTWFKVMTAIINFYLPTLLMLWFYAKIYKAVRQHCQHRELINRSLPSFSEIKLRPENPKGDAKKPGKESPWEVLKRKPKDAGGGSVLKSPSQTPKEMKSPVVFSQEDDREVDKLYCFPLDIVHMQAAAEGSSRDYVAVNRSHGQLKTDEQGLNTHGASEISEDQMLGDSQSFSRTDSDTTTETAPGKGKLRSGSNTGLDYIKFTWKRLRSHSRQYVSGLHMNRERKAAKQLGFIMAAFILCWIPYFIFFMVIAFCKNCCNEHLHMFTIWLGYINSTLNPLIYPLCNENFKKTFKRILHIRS

Q: For `O=C1C(=Nc2cccc(C(F)(F)F)c2)c2ccccc2N1c1ccccc1` [Example 92, 1-PHENYL-3-[[3-(TRIFLUOROMETHYL)PHENYL]IMINO]-1,3-DIHYDRO-2H-INDOL-2-ONE], which “selectivity ratio hH1 (Ki hH1 / Ki hGAL3)” value [1] is on record?
A: >100

Q: What about the “selectivity ratio hD5 (Ki hD5 / Ki hGAL3)” value [2] of the same compound?
A: >100

Q: What about the “selectivity ratio h5HT1D (Ki h5HT1D / Ki hGAL3)” value (Human 5HT1D receptor) of the same compound?
A: >100

Q: And the “selectivity ratio h5HT1E (Ki h5HT1E / Ki hGAL3)” value (Human 5HT1E receptor)?
A: >100

Q: What about the “selectivity ratio hα2B (Ki hα2B / Ki hGAL3)” value (human α2B adrenoceptor) of the same compound?
A: >100

Q: And the “selectivity ratio r5HT Uptk (Ki r5HT Uptk / Ki hGAL3)” value [3]?
A: >100

Q: What about the “selectivity ratio hα2C (Ki hα2C / Ki hGAL3)” value (human α2C adrenoceptor) of the same compound?
A: >100

Q: What about the “selectivity ratio h5HT6 (Ki h5HT6 / Ki hGAL3)” value (h5HT6) of the same compound?
A: >100

Q: And the “responses of the uninjured (contralateral) left paw (thermal plantar) vs vehicle” value ([4]; 3, 10, 30 mg/kg i.p., any time point)?
A: No significant changes

Q: What about the “effect on withdrawal latency of the nerve-injured hind paw to the thermal plantar device” value ([4]; 3, 10 and 30 mg/kg i.p., approx. 40 and 100 min PD) of the same compound?
A: no significant effect

Q: And the “selectivity ratio hD1 (Ki hD1 / Ki hGAL3)” value [5]?
A: >100

Reference: patent US7220775B2, “Compound useful for the treatment of neuropathic pain” (H. Lundbeck A/S, priority 2002, dated 2007)
